Calls of active or inactive are those of the source. No rule for the calls is given here.
biological target: Genome polyprotein (West Nile virus) (UniProt P06935); assay: West Nile NS2B-NS3 proteinase blockers – biochemical, confirmation, dose response (AID 653); settings: WNV NS2B-NS3 protease enzymatic assay, fluorescence
Sequence (P06935 1371-1501 limits assumed): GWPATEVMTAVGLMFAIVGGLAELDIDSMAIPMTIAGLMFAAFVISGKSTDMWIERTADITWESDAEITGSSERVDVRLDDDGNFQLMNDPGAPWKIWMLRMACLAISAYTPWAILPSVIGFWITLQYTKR
Sequence (P06935 1502-1679 limits assumed): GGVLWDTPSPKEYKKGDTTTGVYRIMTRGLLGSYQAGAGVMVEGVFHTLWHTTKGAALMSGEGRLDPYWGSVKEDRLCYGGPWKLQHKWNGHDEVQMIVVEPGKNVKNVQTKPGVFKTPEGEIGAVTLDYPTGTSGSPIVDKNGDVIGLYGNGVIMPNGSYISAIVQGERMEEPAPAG

| IC50 | Structure (SMILES) |
| --- | --- |
| > 50 µM (inactive) | COC(=O)CSC1=C(C#N)C(c2ccc(C)cc2)C2=C(CCCC2=O)N1 (stereo not given) |
| > 50 µM (inactive) | COc1ccc(OC)c(C2C(C(N)=O)=C(C)Nc3nc(-c4cccc(Cl)c4)nn32)c1 (stereo not given) |
| 34.1 µM | COc1ccc(N=CC2=C(O)CCCC2=O)cc1 |
| > 50 µM (inactive) | C/C(CC1(O)C(=O)N(Cc2ccccc2)c2ccccc21)=N\O (stereo not given) |
| > 50 µM (inactive) | COc1cccc(NC(=O)CSc2nc3n[nH]c(C)c3c(=N)n2-c2cccc(OC)c2)c1 |

From PubChem BioAssay AID653 (University of Pittsburgh Molecular Library Screening Center, 2007)
